Test results from US20050037975A1, “Method for treatment of glutamate related disorders” (priority 1997, published 2005).
Numbering of substitutions follows the chain as printed. Values belong to the compound of their own block, whether it stands above or below them.

Assays:
[1] = target: T1, rat liver mitochondrial low Km ALDH (Rattus norvegicus, UniProt P11884); experiment: In vitro inhibition of rat liver mitochondrial low Km aldehyde dehydrogenase (isolated mitochondria); type: biochemical; conditions: one hour incubation
T1 construct: differential centrifugation carried out to isolate the mitochondrial faction; from tissue; host or cells: liver mitochondria of male Sprague-Dawley derived rats
T1 sequence (P11884 20-519): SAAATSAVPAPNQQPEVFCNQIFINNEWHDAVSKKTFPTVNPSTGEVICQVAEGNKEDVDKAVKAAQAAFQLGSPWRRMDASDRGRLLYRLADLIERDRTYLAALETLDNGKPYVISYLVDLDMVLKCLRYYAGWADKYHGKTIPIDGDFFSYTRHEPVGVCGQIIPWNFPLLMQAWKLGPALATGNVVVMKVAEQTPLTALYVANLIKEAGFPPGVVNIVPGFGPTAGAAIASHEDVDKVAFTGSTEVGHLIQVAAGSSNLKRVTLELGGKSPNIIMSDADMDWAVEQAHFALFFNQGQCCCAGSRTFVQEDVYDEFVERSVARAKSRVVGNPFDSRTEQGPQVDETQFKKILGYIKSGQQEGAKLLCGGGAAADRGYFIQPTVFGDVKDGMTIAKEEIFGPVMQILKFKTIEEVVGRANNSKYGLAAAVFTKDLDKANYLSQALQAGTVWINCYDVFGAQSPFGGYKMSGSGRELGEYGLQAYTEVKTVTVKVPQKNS
Experimental: To determine whether a compound of formula (I) can inhibit low Km aldehyde dehydrogenase, an amount of the compound is added to isolated mitochondria. To prepare isolated mitochondria, male Sprague-Dawley derived rats weighing 200-400 g were anesthetized with carbon dioxide and then decapitated. The livers from untreated rats were homogenized in 0.25 M sucrose and differential centrifugation carried out to isolate the mitochondrial faction. The mitochondria were solubilized with sodium deoxycholate, and mitochondrial low Km ALDH activity determined by the method of S. O. C. Tottmar et al., Biochem. J. 135, 577 (1973).
Mitochondria were isolated from the liver of untreated rats and resuspended in 0.1 M phosphate buffer (pH=7.4). Incubations contained 2 mg of mitochondrial protein, to which was added DETC-Me SO at 0.2 μM, 2.0 μM, 20 μM or 200 μM, or DDTC-Me SO at 0.5 μM, 2.5 μM, 10 μM; 25 μM, 50 μM or 100 μM. The DETC-Me SO or DDTC-Me SO was dissolved in ethanol and the incubations carried out for one hour. Control incubations contained ethanol alone.
At the end of the incubation, the mitochondria were isolated by centrifugation, resuspended in 0.25 M sucrose buffer and solubilized with deoxycholate. Low Km ALDH activity was determined by the method of S. O. C. Tottmar et. al., cited above.

mouse liver low Km ALDH = target: T2, mouse liver low Km ALDH (Mus musculus, UniProt P47738); experiment: In vivo inhibition of mouse liver aldehyde dehydrogenase; conditions: mouse; 30 μmol/kg intravenous, mice
T2 construct: Liver aldehyde dehydrogenase was extracted and assayed as previously described; from tissue; host or cells: liver of treated mice
T2 sequence (P47738 20-519): T1 sequence (P11884 20-519) with Q13H, K34R, Q67R, D237G, D313N, N422D
Experimental: Reagents—DETC-MeSO was synthesized by the method of Hart and Faiman (B. W. Hart et al., Biochem. Pharmacol.), 43, 403-406 (1992). Carbamoylated glutathione, S-(N,N-diethylcarbamoyl)glutathione (DETC-GS), was prepared essentially as described by Jin et al. (L. Jin, supra). The structures and purity of DETC-MeSO and DETC-GS were confirmed by 300 MHz NMR and FAB-tandem mass spectrometry. A QE300 NMR spectrometer (General Electric, Fremont, Calif.) and Autospec-Q Tandem Hybrid mass spectrometer (Fiscons/VG Analytical Limited, Manchester, England) were employed for these analyses. Liver aldehyde dehydrogenase was extracted and assayed as previously described (B. W. Hart et al., supra). MetSOX monosodium L-glutamate, glycine, glutathione, and NMDA were purchased from Sigma Chemical Company (St. Louis, Mo.). L-[3-^3H]Glutamate (46 Ci/mmol) was obtained from Amerisham Life Science (Buckinghamshire, England).

[2] = test system: brain glutamate receptors (synaptic membranes); experiment: [3H]glutamate binding to mouse brain synaptic membranes in vitro; conditions: for effect on glutamate binding to synaptic membrane preparations: in vitro, without glycine
Experimental: Binding Studies—Synaptic membranes (100 μg protein) were isolated (Y. H. Lee et al., J. Neurosci. Res. 40, 797-806 (1995)) form whole brain homogenate of male Swiss Webster mice and were incubated in 0.1 mM L-glutamate for 30 minutes at 25° C. After addition of 50 nM of [^3H]glutamate, incubation was continued for an additional 45 minutes. Reactions were terminated by centrifugation at 4° C. to separate membrane-bound from free radioactivity. […] The rate (k) and maximum percent blockage of glutamate binding (M) by DETC-MeSO (1) during the incubation time (t) was determined by fitting the equation [% inhibition]=M(1−e^−kh) to these day by use of the program Grafit (Erithicus Software Ltd.). This equation was derived for first-order inactivation by a group specific reagent that gives a partial effect. If “A” is the percent of binding activity that remains after extensive exposure (t=of the receptor to excess DETC-MeSO, then M=100−A)e^−kh+A; substituting (100−M) for “A” and [100−% inhibition] for “a” in this equation gives the one employed for purposes of data analyses. […] A second equation was employed in the analysis of binding data that defines partial, irreversible inactivation of two distinct groups of receptors [% inhibition]=M1(1−e^−k1^IT)+M2(1−e^−k1^IT), where M1 and M2 are the maximum amount of inhibition obtained for complete modification of each receptor population and k1 and k2 are the rate constants for these modifications, respectively.
Six determinations of the effect of DETC-MeSO were made at each concentration tested (1, 5, 10, 50, 100, 200, and 1000 μM) and the average value is shown with error bars for one standard deviation.

[3] = test system: brain glutamate receptors (synaptic membranes); experiment: Glutamate binding to synaptic membranes isolated from treated mice; type: in vivo, mouse; conditions: 30 μmol/kg intravenous, mice
Experimental: Binding Studies—Synaptic membranes (100 μg protein) were isolated (Y. H. Lee et al., J. Neurosci. Res. 40, 797-806 (1995)) form whole brain homogenate of male Swiss Webster mice and were incubated in 0.1 mM L-glutamate for 30 minutes at 25° C. After addition of 50 nM of [^3H]glutamate, incubation was continued for an additional 45 minutes. Reactions were terminated by centrifugation at 4° C. to separate membrane-bound from free radioactivity. Nonspecific binding (radioactivity bound in the presence of 0.5 mM unlabeled glutamate) averages: 20-30% of total radioactivity bound. The rate (k) and maximum percent blockage of glutamate binding (M) by DETC-MeSO (1) during the incubation time (t) was determined by fitting the equation [% inhibition]=M(1−e^−kh) to these day by use of the program Grafit (Erithicus Software Ltd.). This equation was derived for first-order inactivation by a group specific reagent that gives a partial effect. If “A” is the percent of binding activity that remains after extensive exposure (t=of the receptor to excess DETC-MeSO, then M=100−A)e^−kh+A; substituting (100−M) for “A” and [100−% inhibition] for “a” in this equation gives the one employed for purposes of data analyses. […] A second equation was employed in the analysis of binding data that defines partial, irreversible inactivation of two distinct groups of receptors [% inhibition]=M1(1−e^−k1^IT)+M2(1−e^−k1^IT), where M1 and M2 are the maximum amount of inhibition obtained for complete modification of each receptor population and k1 and k2 are the rate constants for these modifications, respectively.
Synaptic membranes were prepared from the brains of mice injected with DETC-MeSO (5.2 mg/kg, i.p.). The ability of synaptic membrane preparations isolated from DETC-MeSO-treated mice to bind glutamate was compared with similar preparations isolated from control animals. FIG. 3(A) illustrates the results obtained from synaptic membranes prepared from brains of mice killed two hours after a single dose of DETC-MeSO, or two hours after the last injection of multiple consecutive doses (5.2 mg/kg, i.p., daily for seven days). Either single or multiple dosing with DETC-MeSO reduced the capacity of synaptic membranes to bind glutamate by approximately 50%, the maximum effect obtained in vitro (FIG. 3). Each bar represents the average of results obtained from four animals and the error bars are for one standard deviation.

[4] = Carbamoylation of glutathione by DETC-MeSO under physiological conditions; conditions: under physiological conditions
Text: This rate of reaction was approximate an order of magnitude faster than that of the more familiar α-haloketone functionality.

ALDH2 = experiment: In vitro inactivation of aldehyde dehydrogenase; type: biochemical; conditions: reversible or irreversible
Experimental: To test whether the protective effect of DETC-MeSO in hyperbaric O2-induced convulsions in mice could be due to inhibition of succinic semi-aldehyde dehydrogenase (SSA DH), mechanistically related to ALDH2, the sensitivity of SSA DH to inactivation by DETC-MeSO was determined. Potentially, inhibition of SSA DH in brain could offset the build up of ammonia known to occur and produce more GABA. In vitro both ALDH2 and SSA DH are inactivated by DETC-MeSO at 47 M-1 s-1 and 300 M-1 s-1, respectively.

[5] = target: T1, rat liver mitochondrial low Km ALDH; experiment: Liver aldehyde dehydrogenase determined in vivo; conditions: intraperitoneal (IP), liver taken eight hours later
Experimental: To determine if a compound of formula (I) can inhibit aldehyde dehydrogenase activity in vivo, doses of DETC-Me SO (1.3 mg/kg, 2.6 mg/kg, 5.2 mg/kg, 10.3 mg/kg and 20.6 mg/kg), were administered to male Sprague Dawley derived rats weighing 200-400 g. The rats were bred from a resident colony maintained in the Animal Care Unit at the University of Kansas. Rats were maintained on a 12-hour lights cycle with access to food and water ad lib until the night before an experiment, at which time food was removed. Animals were fasted for 12 hours prior to drug administration.
All experiments were carried out in the morning. Rats were treated with the doses of DETC-Me SO or DETC-Me described above, which were dissolved in polyethylene glycol 200. Eight hours later, the rats were anesthetized with carbon-dioxide and then decapitated. The liver was quickly removed and the low Km aldehyde dehydrogenase determined. Control rats were treated with […] vehicle only, and each control data point also represents an average of four rats.
The liver from drug-treated and control rats was homogenized in 0.25 M sucrose and differential centrifugation was carried out to isolate the mitochondrial fraction. The mitochondria were solubilized with sodium deoxycholate, and mitochondrial low Km and total (high and low) aldehyde dehydrogenase activity determined by the method of S. O. C. Tottmar et al., cited above.

- IC50 ([1]; 2 mg mitochondrial protein, read-out: concentration required for 50% inhibition): ~15 µM
Compound: CCN(CC)C(=S)[S+](C)[O-] (centres unmarked) [DDTC-Me SO, S-Methyl-N,N-Diethyldithiocarbamate Sulfoxide]

- inhibition at 30 µmol/kg (mouse liver low Km ALDH): 30.1 ± 1%
- effect on glutamate binding to synaptic membrane preparations [2]: reversibly blocked
- stability of the carbamoylated glutathione [4]: relatively stable
- effect on aldehyde dehydrogenase in vitro (ALDH2): no effect
Compound: CCN(CC)C(=O)SC[C@H](NC(=O)CC[C@H](N)C(=O)O)C(=O)NCC(=O)O [DETC-GS, S-(N,N-diethylcarbamoyl)glutathione]
- irreversible brain glutamate receptor blockage [3]: 26.9±4.3%

Compound: CCN(CC)C(=O)SC [DETC-Me, S-Methyl-N,N-Diethylthiolcarbamate]
- dose required to inhibit 50% of the low Km ALDH [5]: 6.5 mg/kg
- inhibition of low Km ALDH ([1]; 200 μM): 8%

Compound: CN[C@H](CC(=O)O)C(=O)O [NMDA, N-methyl-D-asparate, reference compound]
- reversible blockage of glutamate binding ([2]; 0.5 mM, in the presence of glycine (0.1 mM)): 32±2%
- effect on glutamate binding to synaptic membrane preparations [2]: does not block glutamate binding

Compound: oxidized glutathione [GSSG, reference compound]
- effect on glutamate binding to synaptic membrane preparations [2]: reversibly blocked
